Reference: patent US9150568B2, “Compositions and methods for modulating FXR” (NOVARTIS AG, priority 2010, dated 2015)
Read-outs that look alike come from different tables or passages of the source.

Biological target: T1, human Farnesoid X Receptor (FXR) ligand binding domain (GST-FXR LBD) (Homo sapiens, UniProt Q96RI1)
T1 construct: purchased Invitrogen
T1 sequence (Q96RI1 193-472 isoform Q96RI1-2): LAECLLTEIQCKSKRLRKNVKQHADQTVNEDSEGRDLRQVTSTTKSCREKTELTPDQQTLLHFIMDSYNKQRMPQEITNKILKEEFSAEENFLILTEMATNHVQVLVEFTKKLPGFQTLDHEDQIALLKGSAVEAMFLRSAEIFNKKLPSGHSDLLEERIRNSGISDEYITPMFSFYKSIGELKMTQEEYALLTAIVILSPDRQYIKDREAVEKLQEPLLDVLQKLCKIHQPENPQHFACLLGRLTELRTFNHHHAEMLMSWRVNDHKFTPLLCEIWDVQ
Assay: Human GST-FXR LBD co-activator interaction assay (HTRF)
Format: biochemical
Source text: Human GST-FXR LBD Co-activator interaction Assay. The FXR HTRF assay is a biochemical assay measuring the interaction between FXR and a coactivator protein (SRC1). The ligand-induced interaction with a coactivator protein is a critical step in transcriptional activation by FXR. Thus, this is an assay designed to measure FXR agonist activity of compounds.
The ligand-dependent interaction between GST-FXR LBD and a peptide derived from Steroid Receptor Coactivator-1 (SRC-1) was monitored by Fluorescence Resonance Energy Transfer (FRET). […] Test compounds (in DMSO solution) and detection reagents (anti-GST-Cryptate labeled antibody and Streptavidin-XL665 conjugate; CisBio) were added in assay buffer containing 50 mM KF.
A negative control (without Streptavidin-XL665) was run with each assay and represented the background fluorescence. A reference FXR agonist, GW4064, was included in each experiment as positive control. The efficacy of each test compound was compared to that of GW4064. At each concentration, the relative activity of the test compound was expressed as Response %=(Rsample−RDMSO)/(Rpositive−RDMSO), where Rsample is the HTRF response (expressed in Delta F %) for the test compound, Rpositive is the maximal response for GW4064 at saturating concentrations, and RDMSO is the response for DMSO control. The EC50 values were calculated using GraphPad Prism (GraphPad Software) using non-linear regression curve fit (log(agonist) vs. response—variable slope (four parameters)).

[1] = GST-FXR LBD / biotin-SRC-1 peptide FRET, response relative to GW4064, read-out: FXR Co-activator interaction assay (EC50)

COc1cc(C(=O)O)cc2sc(N3C4CC[C@H]3C[C@H](OCc3c(C5CCCCC5)noc3C3CC3)C4)nc12 [Example 9-2]
EC50 [1]: 11 nM

O=C(O)c1ccc2nc(N3C4CC[C@H]3C[C@H](OCc3c(C5CC5c5ccccc5)noc3C3CC3)C4)sc2c1 (some centres unmarked) [Example 10B, 2-(3-((5-cyclopropyl-3-(2-phenylcyclopropyl)isoxazol-4-yl)methoxy)-8-azabicyclo[3.2.1]octan-8-yl)benzo[d]thiazole-6-carboxylic acid]
EC50 [1]: 98 nM

CC1CC1c1noc(C2CC2)c1CO[C@@H]1CC2CC[C@@H](C1)N2c1nc2c(F)cc(C(=O)O)cc2s1 (some centres unmarked) [Example 12-1]
EC50 [1]: 25 nM

O=C(O)c1cc(F)c2nc(N3C4CC[C@H]3C[C@H](OCc3c(C5CC5)noc3C3CC3)C4)sc2c1 [Example 12-2]
EC50 [1]: 40 nM

COc1cc(C(=O)O)cc2sc(N3C4CC[C@H]3C[C@H](OCc3c(C5CC5)noc3C3CC3)C4)nc12 [Example 12-3]
EC50 [1]: 40 nM

O=C(O)c1ccc2nc(N3C4CC[C@H]3C[C@H](OCc3c(C5CCC6(CC5)CC6)noc3C3CC3)C4)sc2c1 [Example 13-1B]
EC50 [1]: 1.3 nM

O=C(O)c1cc(F)c2nc(N3C4CC[C@H]3C[C@H](OCc3c(C5CCC6(CC5)CC6)noc3C3CC3)C4)sc2c1 [Example 13-2B]
EC50 [1]: 0.53 nM

COc1cc(C(=O)O)cc2sc(N3C4CC[C@H]3C[C@H](OCc3c(C5CCC6(CC5)CC6)noc3C3CC3)C4)nc12 [Example 13-3B]
EC50 [1]: 0.67 nM

Cc1cc(C(=O)O)nc(N2C3CC[C@H]2C[C@H](OCc2c(C4CCC5(CC4)CC5)noc2C2CC2)C3)n1 [Example 14]
EC50 [1]: 35 nM

O=C(O)CNC(=O)c1ccc2nc(N3C4CC[C@H]3C[C@H](OCc3c(-c5ccccc5OC(F)(F)F)noc3C3CC3)C4)sc2c1 [Example 15-1B, 2-(2-(3-((5-cyclopropyl-3-(2-(trifluoromethoxy)phenyl)isoxazol-4-yl)methoxy)-8-azabicyclo[3.2.1]octan-8-yl)benzo[d]thiazole-6-carboxamido)acetic acid]
EC50 [1]: 0.6 nM

O=C(O)CNC(=O)c1cc(F)c2nc(N3C4CC[C@H]3C[C@H](OCc3c(-c5ccccc5OC(F)(F)F)noc3C3CC3)C4)sc2c1 [Example 15-2]
EC50 [1]: 0.5 nM

O=C(O)CNC(=O)c1ccc(N2C3CC[C@H]2C[C@H](OCc2c(-c4ccccc4OC(F)(F)F)noc2C2CC2)C3)nc1 [Example 15-3]
EC50 [1]: 17 nM

O=C(O)CNC(=O)c1cc(F)c2nc(N3C4CC[C@H]3C[C@H](OCc3c(-c5ccccc5C(F)(F)F)noc3C3CC3)C4)sc2c1 [Example 15-4]
EC50 [1]: 0.8 nM

O=C(NCCS(=O)(=O)O)c1ccc2nc(N3C4CC[C@H]3C[C@H](OCc3c(-c5ccccc5OC(F)(F)F)noc3C3CC3)C4)sc2c1 [Example 16-1, 2-(2-(3-((5-cyclopropyl-3-(2-(trifluoromethoxy)phenyl)isoxazol-4-yl)methoxy)-8-azabicyclo[3.2.1]octan-8-yl)benzo[d]thiazole-6-carboxamido)ethanesulfonic acid]
EC50 [1]: 0.6 nM

O=C(NCCS(=O)(=O)O)c1cc(F)c2nc(N3C4CC[C@H]3C[C@H](OCc3c(-c5ccccc5OC(F)(F)F)noc3C3CC3)C4)sc2c1 [Example 16-2]
EC50 [1]: 0.4 nM

O=C(NCCS(=O)(=O)O)c1cc(F)c2nc(N3C4CC[C@H]3C[C@H](OCc3c(-c5ccccc5C(F)(F)F)noc3C3CC3)C4)sc2c1 [Example 16-3]
EC50 [1]: 1.2 nM

O=C(NCCS(=O)(=O)O)c1ccc(N2C3CC[C@H]2C[C@H](OCc2c(-c4ccccc4OC(F)(F)F)noc2C2CC2)C3)nc1 [Example 16-4]
EC50 [1]: 9 nM

COC(=O)c1cnc(N2C3CC[C@H]2C[C@H](OCc2c(-c4ccccc4OC(F)(F)F)noc2C2CC2)C3)c(Br)c1 [Example 18-1, Methyl 5-bromo-6-((1S,3R)-3-((5-cyclopropyl-3-(2-(trifluoromethoxy)phenyl)isoxazol-4-yl)methoxy)-8-azabicyclo[3.2.1]octan-8-yl)nicotinate]
EC50 [1]: 9 nM

O=C(O)c1cnc(N2C3CC[C@H]2C[C@H](OCc2c(-c4ccccc4OC(F)(F)F)noc2C2CC2)C3)c(C2CC2)c1 [Example 18-2B, 5-cyclopropyl-6-((1S,3R)-3-((5-cyclopropyl-3-(2-(trifluoromethoxy)phenyl)isoxazol-4-yl)methoxy)-8-azabicyclo[3.2.1]octan-8-yl)nicotinic acid]
EC50 [1]: 7 nM

COC(=O)c1ccc(N2C3CC[C@H]2C[C@H](OCc2c(-c4ccccc4OC(F)(F)F)noc2C2CC2)C3)nc1 [Example 18-3A]
EC50 [1]: 8 nM

O=C(O)c1ccc(N2[C@@H]3CC[C@H]2C[C@H](OCc2c(-c4ccccc4OC(F)(F)F)noc2C2CC2)C3)nc1 [Example 18-3B, 6-[(1R,5S)-3-({5-cyclopropyl-3-[2-(trifluoromethoxy)phenyl]-1,2-oxazol-4-yl}methoxy)-8-azabicyclo[3.2.1]octan-8-yl]pyridine-3-carboxylic acid]
EC50 [1]: 4 nM

COC(=O)c1cnc(N2C3CC[C@H]2C[C@H](OCc2c(-c4ccccc4OC(F)(F)F)noc2C2CC2)C3)nc1 [Example 18-4A]
EC50 [1]: 20 nM

O=C(O)c1cnc(N2C3CC[C@H]2C[C@H](OCc2c(-c4ccccc4OC(F)(F)F)noc2C2CC2)C3)nc1 [Example 18-4B]
EC50 [1]: 10 nM

COC(=O)c1cnc(N2C3CC[C@H]2C[C@H](OCc2c(-c4ccccc4OC(F)(F)F)noc2C2CC2)C3)cn1 [Example 18-5A]
EC50 [1]: 20 nM

O=C(O)c1cnc(N2C3CC[C@H]2C[C@H](OCc2c(-c4ccccc4OC(F)(F)F)noc2C2CC2)C3)cn1 [Example 18-5B]
EC50 [1]: 3 nM

COC(=O)c1ccc(N2C3CC[C@H]2C[C@H](OCc2c(-c4ccccc4C(F)(F)F)noc2C2CC2)C3)nc1 [Example 18-6A]
EC50 [1]: 50 nM

O=C(O)c1ccc(N2[C@@H]3CC[C@H]2C[C@H](OCc2c(-c4ccccc4C(F)(F)F)noc2C2CC2)C3)nc1 [Example 18-6B, 6-[(1R,5S)-3-({5-cyclopropyl-3-[2-(trifluoromethyl)phenyl]-1,2-oxazol-4-yl}methoxy)-8-azabicyclo[3.2.1]octan-8-yl]pyridine-3-carboxylic acid]
EC50 [1]: 5 nM

COC(=O)c1cc(C)nc(N2C3CC[C@H]2C[C@H](OCc2c(-c4ccccc4OC(F)(F)F)noc2C2CC2)C3)n1 [Example 18-7A]
EC50 [1]: 18 nM

Cc1cc(C(=O)O)nc(N2C3CC[C@H]2C[C@H](OCc2c(-c4ccccc4OC(F)(F)F)noc2C2CC2)C3)n1 [Example 18-7B]
EC50 [1]: 2 nM

COC(=O)Cc1ccc(N2C3CC[C@H]2C[C@H](OCc2c(-c4ccccc4OC(F)(F)F)noc2C2CC2)C3)nc1 [Example 19-1A]
EC50 [1]: 180 nM

O=C(O)Cc1ccc(N2C3CC[C@H]2C[C@H](OCc2c(-c4ccccc4OC(F)(F)F)noc2C2CC2)C3)nc1 [Example 19-1B]
EC50 [1]: 40 nM

COC(=O)c1cnc(N2C3CC[C@H]2C[C@H](OCc2c(-c4ccccc4OC(F)(F)F)noc2C2CC2)C3)nc1C(F)(F)F [Example 19-2A]
EC50 [1]: 80 nM

O=C(O)c1cnc(N2C3CC[C@H]2C[C@H](OCc2c(-c4ccccc4OC(F)(F)F)noc2C2CC2)C3)nc1C(F)(F)F [Example 19-2B]
EC50 [1]: 20 nM

COC(=O)c1cnc(N2C3CC[C@H]2C[C@H](OCc2c(-c4ccccc4OC(F)(F)F)noc2C2CC2)C3)cc1C(F)(F)F [Example 19-3A]
EC50 [1]: 90 nM

O=C(O)c1cnc(N2C3CC[C@H]2C[C@H](OCc2c(-c4ccccc4OC(F)(F)F)noc2C2CC2)C3)cc1C(F)(F)F [Example 19-3B]
EC50 [1]: 10 nM

COC(=O)c1cnc(N2C3CC[C@H]2C[C@H](OCc2c(-c4ccccc4OC(F)(F)F)noc2C2CC2)C3)c(C)c1 [Example 19-4A]
EC50 [1]: 70 nM

Cc1cc(C(=O)O)cnc1N1C2CC[C@H]1C[C@H](OCc1c(-c3ccccc3OC(F)(F)F)noc1C1CC1)C2 [Example 19-4B]
EC50: 5 nM

COC(=O)c1cncc(N2C3CC[C@H]2C[C@H](OCc2c(-c4ccccc4OC(F)(F)F)noc2C2CC2)C3)n1 [Example 19-5A]
EC50 [1]: 200 nM

O=C(O)c1cncc(N2C3CC[C@H]2C[C@H](OCc2c(-c4ccccc4OC(F)(F)F)noc2C2CC2)C3)n1 [Example 19-5B]
EC50 [1]: 9 nM

COC(=O)c1ccnc(N2C3CC[C@H]2C[C@H](OCc2c(-c4ccccc4OC(F)(F)F)noc2C2CC2)C3)n1 [Example 19-6A]
EC50 [1]: 50 nM

O=C(O)c1ccnc(N2C3CC[C@H]2C[C@H](OCc2c(-c4ccccc4OC(F)(F)F)noc2C2CC2)C3)n1 [Example 19-6B]
EC50 [1]: 7 nM

COC(=O)c1cccc(N2C3CC[C@H]2C[C@H](OCc2c(-c4ccccc4OC(F)(F)F)noc2C2CC2)C3)n1 [Example 19-7A]
EC50 [1]: 10 nM

O=C(O)c1cccc(N2C3CC[C@H]2C[C@H](OCc2c(-c4ccccc4OC(F)(F)F)noc2C2CC2)C3)n1 [Example 19-7B]
EC50 [1]: 3 nM

COC(=O)c1ccnc(N2C3CC[C@H]2CC(OCc2c(-c4ccccc4C(F)(F)F)noc2C2CC2)C3)c1 (some centres unmarked) [Example 20A]
EC50 [1]: 170 nM
